{"source": "paper PMC7275090", "about": "“Mode of action of teixobactins in cellular membranes” (Nature Communications, 2020)", "molecules": {"B1": {"name": "[R4L10]-teixobactin (peptide)", "peptide": "[dNMeF]IS[dR][d(aIle)]IS[dT]ALI", "modifications": "ester 8-C; also: 13C,15N-labelled at Ile2, Ser3, Ile6, Ser7, Ala9, Leu10", "notes": "Analogue of teixobactin, a natural undecapeptide from Eleftheria terrae; Cyclic depsipeptide with non-proteinogenic and D-residues; also called D-Arg4-Leu10-teixobactin; source: synthetic peptide (solid-phase synthesis, cyclised, purified by RP-HPLC)"}}, "key": {"[1]": {"conditions": "vancomycin, unlike teixobactins; cited from earlier work", "description": "In summary, a picture of a balanced binding mode emerges in which teixobactins use the conserved pyrophosphate as firm, specific anchor, whereas the interaction with the sugar-pentapeptide headgroup is more loosely defined[28],[29]. This behaviour enables teixobactins to recognize different cognate cell-wall building blocks and wall teichoic acids precursors, such as Lipid I, Lipid II, Lipid III, and undecaprenyl pyrophosphate that all have the PPi moiety in common but feature different headgroups. The capacity to recognize several conserved precursor molecules both maximizes the number of ..."}, "[2]": {"assay": "ssNMR 15N T1rho relaxation (dynamics of bound teixobactin), Lys-Lipid II", "conditions": "[L10] analogue, 60 kHz MAS", "description": "Relaxation studies: ^1H-detected ^15N T1rho relaxation experiments were carried out at 950 and 700 MHz magnetic field, respectively, using 60 kHz MAS[51]. The ^15N transverse magnetization decay was probed with a ^15N spinlock field of 17.5 kHz. For the bulk, we measured the intensity of the most intense signal at ~8.80 ^1H ppm. T1rho trajectories were fit to single exponentials.\nLipid I or II-doped multi-laminar vesicle preparations: DOPC or DOPG lipids were mixed with Lipid I or II in 1:1 MeOH:CHCl3 at the final Lipid I or II molar ratio (0–4 mol%/mol). The mixtures were dried and the lipid films were hydrated by vortexing with 2 mL of a teixobactin solution in 40 mM phosphate, 25 mM NaCl, pH 7.0.\n(§1) SSNMR samples: MLVs were collected by centrifugation (20,000×g) and loaded into ssNMR rotors. For 3.2 mm rotors, we used 800 nmol of antibiotic with unlabelled Lipid II or I, while we used 400 nmol with labelled Lipid II. For 1.3 mm rotors, samples contained 200 nmol of antibiotic for unlabelled Lipid II or I, while we used 100 nmol for labelled Lipid II. For all ssNMR samples, we used 4 mol%/mol Lipid II or I in the MLVs."}, "[3]": {"assay": "ssNMR signal intensity of Lipid II-bound teixobactin, DOPC vs DOPG liposomes", "description": "as §1\nH/ppm H/ppm N spinlock duration (ms)\nWeaker binding affinity to Lipid II in anionic conditions is a common property of the binding mode of teixobactins.\nTo validate and generalise our findings, we repeated ssNMR studies with a second analogue, [L10]-teixobactin, which is close to natural teixobactin. Both [L10]- teixobactin and [R4L10]-teixobactin show similar behaviour in anionic membranes, i.e., sharp drops in ssNMR sensitivity and marked increase in mobility in the complex. We note that only the difference between natural teixobactin and [Leu10]- teixobactin is the substitution of enduracididine10 by leucine10. We also note that the substitution by enduracididine10 by cationic or hydrophobic residues is tolerated […]\na) 1H-detected 1D NH spectra of Lipid II-bound [Leu10]-teixobactin measured in DOPC (cyan) and DOPG (red) liposomes. The signal-to-noise ratio is more than six times lower in anionic membranes. Both spectra were acquired with fully packed 1.3 mm rotors and 10240 scans each. b)15N T1rho signal decay curves of the bulk signal of Lipid II-bound [Leu10]- teixobactin in DOPC (cyan) and (DOPG (red) membranes. Relaxation is much faster […]\nc) Corresponding 15N R1rho rates of Lipid II-bound [Leu10]-teixobactin in DOPC (cyan) and DOPG (red) membranes. The error bars show the standard error of the fit. Source data are provided as a Source Data file.\nThe spectra were acquired at 700 MHz with 60 kHz magic angle spinning (MAS)."}, "[4]": {"assay": "Fluorescence microscopy of GUVs doped with NBD-labelled Lipid II (Lipid II clustering)", "conditions": "DOPC GUVs, 1 μM peptide, 4 h", "method": "GUVs were prepared using the electroformation method. The GUV cell is a self-assembled system which consists of a 5 mm-thick Teflon plate which is aligned with two titanium electrodes in a closed Teflon chamber. 1.5 μL of 0.5 mM DOPC doped with NBD-labelled Lipid II (0.1 mol%) were brushed on the electrodes. Next, the chamber was filled with 350 μL 0.1 M sucrose solution; the electrodes dipped in and then connected to a power supply which generated a sine wave of voltage 2.5 V at a frequency of 10 Hz for 90 min. Each microscopy slide (μ-slide 8 well, Ibidi) was covered with 350 μL BSA solution (1 mg/mL). To detach the GUVs from the electrodes the power supply was changed to square wave of voltage 2 V at a frequency of 2 Hz for 15 min. The slides were immersed in 300 μL 0.1 mM glucose solution to which 80 μL of GUVs were added. These were incubated for 4 h with 1 μM [R4L10]-teixobactin and observed by confocal microscopy. Anionic GUVs were prepared using a homemade electroformation setup with ITO coverslips (18 × 18 mm, 15–30 Ω, SPI supplies). On both slips, 3 μL of a chloroform–methanol (1:1, vol/vol) solution containing 1 mM of a 3:1 mixture of DOPC:DOPG (mol/mol) and 0.1 mol% NBD-labelled Lipid II was deposited and dried in a vacuum desiccator. With these slips, the electroformation chamber was assembled and filled with 0.1 M sucrose solution. The GUV cell was connected to the power supply and an alternating current applied (1 V, 10 Hz). GUV formation was carried out overnight.\nMicroscopy: GUVs were imaged using Zeiss LSM 880 with ×63/1.2NA glycerol objective lens. The NBD label appeared green upon excitation by the 488 nm laser. The emission range for detection was 530–545 nm (λem peak = 539 nm). The brightfield images were used for detection and location of the GUVs without a fluorescent signal and also as a control to observe their shape."}, "[5]": {"biological_target": "the molecule itself", "assay": "solid-state NMR; 2D 13C13C PARISxy spectra with long magnetization transfer times (50-1000 ms), distance threshold ~8 Å; 13C,15N-labelled [R4L10]-teixobactin bound to unlabelled Lipid II (4 mol%) in DOPC membranes; 950 MHz, 15.5 kHz MAS, 270 K"}}, "note": "Bridge positions count the residues as written; N and C are the ends. Square brackets hold non-standard residues; d marks the D form. Ends that are not written are not given here. d(aIle) = CC[C@H](C)[C@@H](N)C(=O)O; dNMeF = CN[C@H](Cc1ccccc1)C(=O)O", "data": [{"molecule": "vancomycin", "values": [{"measurement": "ability to bind Lipid II versions with different pentapeptides", "setting": "[1]", "value": "unlike vancomycin"}]}, {"molecule": "Leu10-teixobactin [[L10]-teixobactin]", "values": [{"measurement": "Bulk 15N R1rho", "setting": "[2]; Lys-LII in DOPC (Lys-LII PC)", "value": 5.29, "unit": "s⁻¹"}, {"measurement": "Bulk 15N T1rho", "setting": "[2]; Lys-LII in DOPC (Lys-LII PC)", "value": 189.00, "unit": "ms"}, {"measurement": "Bulk 15N R1rho", "setting": "[2]; Lys-LII in DOPG (Lys-LII PG)", "value": 18.49, "unit": "s⁻¹"}, {"measurement": "Bulk 15N T1rho", "setting": "[2]; Lys-LII in DOPG (Lys-LII PG)", "value": 54.07, "unit": "ms"}, {"measurement": "signal-to-noise ratio, times lower in anionic membranes", "setting": "[3]; DOPG vs DOPC, 1H-detected 1D NH spectra, 10240 scans each", "value": "more than six"}, {"measurement": "relative 1D NH signal, DOPC", "setting": "[3]; Supplementary Figure 11a, DOPC (reference)", "value": 100, "unit": "%"}, {"measurement": "relative 1D NH signal, DOPG", "setting": "[3]; Supplementary Figure 11a, DOPG relative to DOPC", "value": 15, "unit": "%"}, {"measurement": "Lipid II segregation into clusters on GUVs", "setting": "[4]; 0.1 mol% NBD-Lipid II", "value": "segregation of Lipid II into clusters"}, {"measurement": "vesicle integrity and morphology after incubation", "setting": "[4]; brightfield images, cluster sites show slight membrane deformations", "value": "morphology is maintained"}]}, {"molecule": "B1", "values": [{"measurement": "binding result", "setting": "[5]", "value": "binds"}]}]}
